In DBAASP one finds MIC data, which are given here for eight compounds.

In brackets after ≈: the same amount, converted by molar mass.

Test systems include Escherichia coli 078; Escherichia coli K88; Escherichia coli K99; Escherichia coli UB1005; Escherichia coli D31; Candida albicans.
Assay in all cases: ≥ marks a high value that may be exact or a test limit, other limits are often not marked, values filed in µg/mL are converted to µM
In experiment [1] the test system is Candida albicans CGMCC 2.2086.
For experiment [2], the system named is Candida parapsilosis CGMCC 2.3989.
For experiment [3], the system named is Candida tropicalis CGMCC 2.1975.
The subject of experiment [4] is Pseudomonas aeruginosa ATCC 27853.
The subject of experiment [5] is Salmonella enterica subsp. enterica serovar Pullorum ATCC 7913.
Experiment [6] has as its system Salmonella enterica subsp. enterica serovar Typhimurium ATCC 14028.
The subject of experiment [7] is Salmonella enterica subsp. enterica serovar Typhimurium C77-31.
Experiment [8] relates to Staphylococcus aureus ATCC 25923.
For experiment [9], the system named is Staphylococcus aureus ATCC 29213.
Experiment [10] relates to Staphylococcus aureus ATCC 43300.
In experiment [11] the test system is Staphylococcus epidermidis ATCC 12228.
For experiment [12], the system named is Acinetobacter baumannii ATCC 19606.
In experiment [13] the test system is Bacillus subtilis ATCC 6051.
For experiment [14], the system named is Pseudomonas aeruginosa PAO1.
The subject of experiment [15] is Staphylococcus aureus ATCC 27660.
In experiment [16] the test system is Candida albicans ATCC 24433.
For experiment [17], the system named is Escherichia coli ATCC 25922.
Experiment [18] relates to Candida albicans NCYC 1467.
For experiment [19], the system named is Enterococcus faecalis NCTC 12697.
The test system of experiment [20] is Escherichia coli NCTC 10418.
For experiment [21], the system named is Klebsiella pneumoniae ATCC 43816.
The subject of experiment [22] is Staphylococcus aureus NCTC 10788.
Experiment [23] concerns Staphylococcus aureus NCTC 12493.
Experiment [24] concerns Enterococcus faecalis ATCC 29212.
In experiment [25] the test system is Salmonella enterica subsp. enterica serovar Choleraesuis CVCC 503.

The term MIC denotes the lowest concentration that inhibits growth of the organism. Take `CC[C@H](C)[C@H](NC(=O)[C@H](CCCN=C(N)N)NC(=O)[C@H](C)NC(=O)[C@H](C)N)C(=O)N[C@H](C(=O)N[C@@H](CC(C)C)C(=O)N[C@@H](CCCN=C(N)N)C(=O)N[C@@H](CC(N)=O)C(=O)N[C@@H](CCCN=C(N)N)C(=O)N[C@@H](Cc1ccccc1)C(=O)N[C@@H](CCCN=C(N)N)C(N)=O)[C@@H](C)CC` [AARIILRNRFR]: the MIC in experiment [1] was no less than 128 µM; in [2] it was no less than 128 µM; in experiment [3] it was no less than 128 µM; in the experiment with Escherichia coli 078 it was 16 µM (≈ 22.2 µg/mL); against Escherichia coli K88, no less than 32 µM; in the experiment with Escherichia coli K99, 16 µM (≈ 22.2 µg/mL). Further, the MIC is 16 µM (≈ 22.2 µg/mL) against Escherichia coli UB1005; greater than 128 µM in [4]; 16 µM (≈ 22.2 µg/mL) in experiment [5]; 32 µM (≈ 44.3 µg/mL) in experiment [6]; no less than 32 µM in experiment [7]; greater than 128 µM in [8]. Also, the MIC in experiment [9], in experiment [10] and in experiment [11] was greater than 128 µM throughout.

For `CC(C)C[C@H](NC(=O)[C@H](C)N)C(=O)N[C@@H](Cc1c[nH]c2ccccc12)C(=O)N[C@@H](CCCN=C(N)N)C(=O)N[C@@H](CCCN=C(N)N)C(=O)N[C@@H](CC(C)C)C(=O)N[C@@H](CC(C)C)C(=O)N[C@@H](CCCN=C(N)N)C(=O)N[C@@H](CCCN=C(N)N)C(=O)N[C@@H](CC(C)C)C(=O)N[C@@H](CC(C)C)C(=O)N[C@@H](CCCN=C(N)N)C(=O)N[C@@H](CO)C(=O)N[C@@H](C)C(=O)N[C@@H](CCCN=C(N)N)C(=O)N[C@@H](CCCN=C(N)N)C(=O)N[C@@H](CC(C)C)C(=O)NCC(N)=O` [ALWRRLLRRLLRSARRLG], the minimal inhibitory concentration (MIC) in experiment [12] is 3.75 µM (≈ 8.48 µg/mL); in [13], 1.88 µM (≈ 4.24 µg/mL); with Escherichia coli D31 it was 1.88 µM (≈ 4.24 µg/mL); in experiment [14] it was 7.5 µM (≈ 17 µg/mL); in experiment [15], 3.75 µM (≈ 8.48 µg/mL).

As for `CC[C@H](C)[C@H](NC(=O)CNC(=O)[C@@H](NC(=O)[C@H](C)NC(=O)[C@@H](NC(=O)[C@H](CCCCN)NC(=O)[C@@H]1CCCN1C(=O)[C@@H](NC(=O)[C@H](CCSC)NC(=O)[C@H](CO)NC(=O)[C@H](Cc1ccccc1)NC(=O)[C@@H](N)Cc1ccccc1)[C@@H](C)CC)[C@@H](C)CC)[C@@H](C)O)C(=O)N[C@@H](C)C(=O)N[C@@H](CO)C(=O)N[C@@H](CC(C)C)C(=O)N[C@H](C(=O)N[C@@H](CCCCN)C(=O)N[C@@H](CC(=O)O)C(=O)N[C@@H](CC(C)C)C(N)=O)C(C)C` [FFSMIPKIATGIASLVKDL], the figures for the minimum inhibitory concentration (MIC) in [16], in experiment [17] and in experiment [11] were no less than 100 µM, greater than 100 µM and greater than 100 µM, respectively.

Regarding `CC[C@H](C)[C@H](NC(=O)[C@H](C)NC(=O)[C@H](C)NC(=O)[C@@H]1CCCN1C(=O)[C@@H](NC(=O)[C@H](CC(C)C)NC(=O)[C@H](CCCCN)NC(=O)CNC(=O)[C@H](C)NC(=O)[C@@H](NC(=O)[C@H](CCCCN)NC(=O)[C@H](CC(C)C)NC(=O)[C@@H](NC(=O)[C@H](C)NC(=O)CNC(=O)[C@H](CC(C)C)NC(=O)[C@@H](N)Cc1ccccc1)C(C)C)C(C)C)C(C)C)C(=O)O` [FLGAVLKVAGKLVPAAI], the minimum inhibitory concentration (MIC) in experiment [18], in experiment [19], in [20], in experiment [21], in [22] and in [23] was no less than 512 µM throughout.

`CC[C@H](C)[C@H](NC(=O)CNC(=O)[C@@H](NC(=O)[C@H](C)NC(=O)[C@@H](NC(=O)[C@H](Cc1cnc[nH]1)NC(=O)[C@@H]1CCCN1C(=O)[C@@H](NC(=O)[C@H](CC(C)C)NC(=O)[C@H](CO)NC(=O)[C@H](CC(C)C)NC(=O)[C@@H](N)Cc1ccccc1)[C@@H](C)CC)[C@@H](C)CC)[C@@H](C)O)C(=O)N[C@@H](C)C(=O)N[C@@H](C)C(=O)N[C@@H](CC(C)C)C(=O)N[C@@H](C)C(=O)N[C@@H](CCCCN)C(=O)N[C@@H](Cc1cnc[nH]1)C(=O)N[C@@H](CC(C)C)C(N)=O` [FLSLIPHIATGIAALAKHL]: the MIC in experiment [16] was no less than 100 µM; in experiment [17], 50 µM (≈ 99.3 µg/mL); in [11], 12.5 µM (≈ 24.8 µg/mL).

For the compound `CC(C)C[C@H](NC(=O)[C@H](CCC(N)=O)NC(=O)[C@H](CCC(N)=O)NC(=O)[C@H](C)NC(=O)CNC(=O)[C@H](C)NC(=O)[C@H](CCCCN)NC(=O)CNC(=O)[C@@H](NC(=O)[C@H](CCC(N)=O)NC(=O)[C@H](CCCCN)NC(=O)[C@H](C)NC(=O)[C@H](CC(C)C)NC(=O)[C@H](Cc1ccc(O)cc1)NC(=O)[C@H](CCCCN)NC(=O)[C@H](C)NC(=O)CNC(=O)[C@H](C)NC(=O)[C@H](CCCCN)NC(=O)[C@H](Cc1ccccc1)NC(=O)[C@H](CC(C)C)NC(=O)[C@H](CO)NC(=O)[C@H](CO)NC(=O)[C@H](Cc1ccccc1)NC(=O)CN)C(C)C)C(N)=O` [GFSSLFKAGAKYLAKQVGKAGAQQL], the MIC is 16 µM (≈ 41.1 µg/mL) in experiment [18]; 8 µM (≈ 20.5 µg/mL) in [19]; 8 µM (≈ 20.5 µg/mL) in experiment [20]; no less than 128 µM in experiment [21]; 32 µM (≈ 82.2 µg/mL) in [4]; 8 µM (≈ 20.5 µg/mL) in experiment [22]. Besides, the MIC in [23] came to 16 µM (≈ 41.1 µg/mL).

On to `CC[C@H](C)[C@@H]1NC(=O)[C@H](C)NC(=O)[C@@H](NC(=O)[C@H](Cc2ccccc2)NC(=O)[C@H](Cc2c[nH]c3ccccc23)NC(=O)[C@H](CCCCN)NC(=O)[C@H](Cc2c[nH]c3ccccc23)NC(=O)[C@@H]2CCCN2C(=O)[C@H](CC(C)C)NC(=O)[C@H](Cc2ccccc2)NC(=O)[C@@H](N)CCCCN)CSSC[C@@H](C(=O)O)NC(=O)[C@H](CCCCN)NC(=O)[C@H](CCCCN)NC(=O)[C@H]([C@@H](C)O)NC1=O` [KFLPWKWFCAITKKC], for which the MIC in [18] was 16 µM (≈ 30.4 µg/mL); in experiment [19], no less than 256 µM; in [20] it was 16 µM (≈ 30.4 µg/mL); in experiment [21], no less than 32 µM; in experiment [4] it was 64 µM (≈ 121 µg/mL); in experiment [22], 8 µM (≈ 15.2 µg/mL). In experiment [23], this compound yielded an MIC of 8 µM (≈ 15.2 µg/mL).

In the case of `CC(C)C[C@H](NC(=O)[C@H](CCCN=C(N)N)NC(=O)[C@H](C)NC(=O)[C@H](CS)NC(=O)[C@H](CC(C)C)NC(=O)[C@H](CCCCN)NC(=O)[C@H](CCCCN)NC(=O)[C@H](CC(C)C)NC(=O)[C@H](CCCN=C(N)N)NC(=O)[C@H](C)NC(=O)[C@H](CS)NC(=O)[C@H](CC(C)C)NC(=O)[C@H](CCCCN)NC(=O)[C@H](CCCCN)NC(=O)[C@@H](N)CC(C)C)C(=O)N[C@@H](CCCCN)C(=O)N[C@@H](CCCCN)C(=O)N[C@@H](CC(C)C)C(=O)N[C@@H](CS)C(=O)N[C@@H](C)C(=O)N[C@@H](CCCN=C(N)N)C(N)=O` [LKKLCARLKKLCARLKKLCAR], the MIC is 5.66 µM (≈ 13.9 µg/mL) in the experiment on Candida albicans; 8 µM (≈ 19.7 µg/mL) in experiment [2]; 2 µM (≈ 4.91 µg/mL) in [3]; greater than 64 µM in [24]; 2 µM (≈ 4.91 µg/mL) against Escherichia coli UB1005; 16 µM (≈ 39.3 µg/mL) in experiment [4]. The MIC was 16 µM (≈ 39.3 µg/mL) in experiment [14]; 8 µM (≈ 19.7 µg/mL) in experiment [25]; 32 µM (≈ 78.6 µg/mL) in [6]; no less than 64 µM in experiment [7]; greater than 64 µM in experiment [8]; greater than 64 µM in experiment [9]. For the same compound, the results for the MIC in [10] and in experiment [11] were 32 µM (≈ 78.6 µg/mL) and greater than 64 µM, respectively.
